How the values were obtained:
Diabrotica balteata = test: Action against Diabrotica balteata larvae (sprayed maize seedlings); assay type: in vivo; conditions: 144 h, 400 ppm spray mixture, second-stage larvae, evaluation 6 days later, read-out: % activity (percentage reduction in population)
Method: Maize seedlings are sprayed with an aqueous emulsion spray mixture comprising 400 ppm of the test compound. After the spray-coating has dried, the maize seedlings are populated with 10 Diabrotica balteata larvae in the second stage and placed in a plastics container. Evaluation is made 6 days later. The percentage reduction in population (% activity) is determined by comparing the number of dead larvae on the treated plants with that on untreated plants.

Heliothis virescens = test: Action against Heliothis virescens caterpillars (sprayed soybean plants); assay type: in vivo; conditions: 144 h, 400 ppm spray mixture, first-stage caterpillars, evaluation 6 days later, read-out: % activity (percentage reduction in population and percentage reduction in feeding damage)
Method: Young soybean plants are sprayed with an aqueous emulsion spray mixture comprising 400 ppm of test compound. After the spray-coating has dried, the soybean plants are populated with 10 caterpillars of Heliothis virescens in the first stage and placed in a plastics container. Evaluation is made 6 days later. The percentage reduction in population and the percentage reduction in feeding damage (% activity) are determined by comparing the number of dead caterpillars and the feeding damage on the treated plants with that on untreated plants.

Plutella xylostella = test: Action against Plutella xylostella caterpillars (sprayed cabbage plants); assay type: in vivo; conditions: 72 h, 400 ppm spray mixture, third-stage caterpillars, evaluation 3 days later, read-out: % activity (percentage reduction in population and percentage reduction in feeding damage)
Method: (§1) Young cabbage plants are sprayed with an aqueous emulsion spray mixture comprising 400 ppm of test compound. After the spray-coating has dried, the cabbage plants are populated with 10 caterpillars of Plutella xylostella in the third stage and placed in a plastics container. Evaluation is made 3 days later. The percentage reduction in population and the percentage reduction in feeding damage (% activity) are determined by comparing the number of dead caterpillars and the feeding damage on the treated plants with that on the untreated plants.

Spodoptera littoralis = test: Action against Spodoptera littoralis caterpillars (sprayed soybean plants); assay type: in vivo; conditions: 72 h, 400 ppm spray mixture, third-stage caterpillars, evaluation 3 days later, read-out: % activity (percentage reduction in population and percentage reduction in feeding damage)
Method: as §1, with “Young soybean plants are” for “Young cabbage plants are”, “dried, the soybean plants are” for “dried, the cabbage plants are”, “caterpillars of Spodoptera littoralis in the” for “caterpillars of Plutella xylostella in the”, “that on untreated plants.” for “that on the untreated plants.”

melting point [°C] | Compound | inhibition at 400 ppm (Diabrotica balteata) [%] | inhibition at 400 ppm (Heliothis virescens) [%] | inhibition at 400 ppm (Plutella xylostella) [%] | inhibition at 400 ppm (Spodoptera littoralis) [%]
207 to 211 | CCC1=C(C(O)(c2ccc(C(F)(F)F)cc2)c2ccc(C(F)(F)F)cc2)CC[N+]([O-])(Cc2ccc(NC(=O)OC(C)C)cc2)C1 (centres unmarked) [Compound 1.11] |  |  |  | 
66 to 67 | CC(C)OC(=O)Nc1ccc(CN2CC[C@@H](C(O)(c3ccc(C(F)(F)F)cc3)c3ccc(C(F)(F)F)cc3)[C@H](C)C2)cc1 [Compound 2.6] | > 80 | > 80 | > 80 | > 80
188 to 190 | CC(C)OC(=O)Nc1ccc(C[N+]2([O-])CC[C@@H](C(O)(c3ccc(C(F)(F)F)cc3)c3ccc(C(F)(F)F)cc3)[C@H](C)C2)cc1 (some centres unmarked) [Compound 2.5] | > 80 | > 80 | > 80 | > 80
